A short description of the series: Glucagon solubility assay (UV absorbance of supernatant after pH adjustment). Conditions: for solubility relative to native glucagon: pH values of 5.5 and 7.0, after 60 hours at 25° C. (FIG. 3) or 24 hours at 25° C. then 24 hours at 4° C. (FIG. 4). The series is classed as physicochemical.

Where no end group is shown, it is not given here.

Turning to `CSCC[C@H](NC(=O)[C@H](CC(C)C)NC(=O)[C@H](Cc1c[nH]c2ccccc12)NC(=O)[C@H](CCC(N)=O)NC(=O)[C@@H](NC(=O)[C@H](Cc1ccccc1)NC(=O)[C@H](CC(=O)O)NC(=O)[C@H](CCC(N)=O)NC(=O)[C@H](C)NC(=O)[C@H](CCCNC(=N)N)NC(=O)[C@H](CCCNC(=N)N)NC(=O)[C@H](CO)NC(=O)[C@H](CC(=O)O)NC(=O)[C@H](CC(C)C)NC(=O)[C@H](Cc1ccc(O)cc1)NC(=O)[C@H](CCCCN)NC(=O)[C@H](CO)NC(=O)[C@H](Cc1ccc(O)cc1)NC(=O)[C@H](CC(=O)O)NC(=O)[C@H](CO)NC(=O)[C@@H](NC(=O)[C@H](Cc1ccccc1)NC(=O)[C@@H](NC(=O)CNC(=O)[C@H](CCC(N)=O)NC(=O)[C@H](CO)NC(=O)[C@@H](N)Cc1c[nH]cn1)[C@@H](C)O)[C@@H](C)O)C(C)C)C(=O)N[C@@H](CC(=O)O)C(=O)N[C@@H](CCC(=O)O)C(=O)O` [D28, E29], the “solubility relative to native glucagon” value was “superior solubility”.

As for “Glucagon, Cys17PEG5K: Glucagon Cys17 (1-29) reacted with methoxy poly(ethyleneglycol) maleimide avg. M.W. 5000”, the “Percent Soluble” value (pH 7) came to 94%. Regarding “HSQGTFTSDYSKYLESRRAQDFVQWLMDT [D28, E15]”, the “solubility relative to native glucagon” value is recorded as “superior solubility”.

Values taken from patent US8669228B2 (Indiana University Research and Technology Corporation, priority 2007, dated 2014).
